The experiment addresses T1, β-galactosidase (β-Gal) (Escherichia coli, UniProt P00722).
T1 construct: purchased Sigma (St. Louis, MO)
The experiment can be described thus: biochemical. Format: biochemical. How it is done: Solution-based enzyme assays were performed on SpectraMax M5 96 well plate readers (Molecular Device, Sunnyvale, CA) as described previously.[13] Briefly, peptides were first incubated with enzyme for 20 minutes, then the substrate solution was added into the wells to measure the enzyme activity, including at least three replicates per peptide. The β-gal catalyzed hydrolysis of RBG was fluorescently monitored at 590 nm (resorufin) with the excitation at 540 nm. The velocity of the reaction was determined by the initial velocity of the linear reaction. The IC50 of each inhibitor was determined by fitting the concentration vs. inhibition curve to the function ‘Fit LogIC50’ as defined in the program GraphPad Prism 7 using the fitting equation “Y = Bottom+(Top-Bottom)/(1+10^(X-LogIC50))”.
The enzyme inhibition was also quantitatively characterized using the inhibition percentage that was calculated using the following equation: Inhibition Percentage = (Activityuninhibited− Activityinhibited)/ Activityuninhibited× 100% […]
Fluorescein di-β-D-galactopyranoside (FDG), resorufin β-D-galactopyranoside (RBG) and Alexa Fluor 647 (Alexa 647) were purchased from Invitrogen (Eugene, OR). Phenylethyl β-D-thiogalactoside (PETG), β-galactosidase (β-Gal), phosphate buffered saline (PBS) and tris buffered saline (TBS) were obtained from Sigma (St. Louis, MO). A 4 mg/mL stock solution of β-Gal was prepared in 10 mM potassium phosphate buffer with 0.1 mM MgCl2 at pH 7.4. A 2 mg/mL stock solution of peptide was first prepared in pure water, and then diluted in phosphate buffer to the desired concentration. Custom peptides were purchased from Sigma.

Six compounds from PMC5557489, “Computational and experimental analysis of short peptide motifs for enzyme inhibition” (PLoS ONE, 2017) can be followed below.

Read-outs that look alike come from different tables or passages of the source. Ends that are not written are not given here.

T1 sequence (P00722 2-1024): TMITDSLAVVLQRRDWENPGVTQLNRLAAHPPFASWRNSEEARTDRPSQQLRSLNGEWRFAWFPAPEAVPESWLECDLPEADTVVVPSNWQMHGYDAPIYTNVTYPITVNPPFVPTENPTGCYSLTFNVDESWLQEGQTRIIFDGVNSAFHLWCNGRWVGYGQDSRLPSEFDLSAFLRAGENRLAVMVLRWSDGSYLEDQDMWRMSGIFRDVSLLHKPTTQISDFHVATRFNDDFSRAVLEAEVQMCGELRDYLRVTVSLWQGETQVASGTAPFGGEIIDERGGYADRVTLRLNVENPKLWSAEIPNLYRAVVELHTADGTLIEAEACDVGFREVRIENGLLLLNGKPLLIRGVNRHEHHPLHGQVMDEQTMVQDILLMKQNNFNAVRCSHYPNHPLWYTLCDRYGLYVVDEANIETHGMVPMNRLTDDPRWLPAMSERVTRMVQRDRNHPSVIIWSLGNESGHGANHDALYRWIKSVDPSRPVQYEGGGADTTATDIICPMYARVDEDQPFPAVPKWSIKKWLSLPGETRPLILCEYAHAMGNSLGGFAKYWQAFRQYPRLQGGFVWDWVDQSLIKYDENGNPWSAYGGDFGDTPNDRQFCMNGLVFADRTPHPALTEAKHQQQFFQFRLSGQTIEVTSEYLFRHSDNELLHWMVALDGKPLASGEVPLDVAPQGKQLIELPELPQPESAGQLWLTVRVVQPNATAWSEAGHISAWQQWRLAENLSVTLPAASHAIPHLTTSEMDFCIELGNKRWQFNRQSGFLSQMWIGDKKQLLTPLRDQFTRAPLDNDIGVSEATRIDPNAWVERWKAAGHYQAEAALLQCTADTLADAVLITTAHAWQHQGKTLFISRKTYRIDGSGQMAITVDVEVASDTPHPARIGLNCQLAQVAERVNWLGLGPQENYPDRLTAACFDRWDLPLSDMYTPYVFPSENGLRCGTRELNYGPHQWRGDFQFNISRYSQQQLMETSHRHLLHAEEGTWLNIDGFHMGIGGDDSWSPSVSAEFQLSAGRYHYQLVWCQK

Take `OC[C@H]1O[C@@H](SCCc2ccccc2)[C@H](O)[C@@H](O)[C@@H]1O` [PETG, phenylethyl β-D-thiogalactoside, reference compound]: under “Fig 1, 100 μM RBG, β-Gal 150 μg/L, 25°C, three replicates, lead peptides previously selected from microarray [13], read-out: IC50 of peptide inhibition of β-Gal”, the IC50 was ~35 µM.

For FKRYKRWGSC [nPEP-1], the concentration for half-maximal inhibition (IC50) was ~4 µM.

For the compound FKRYRRWGSC [nPEP-1-45], the IC50 is ~2.5 µM.

Regarding “KKQGYYYKLGSC [shorter C-terminus motif of PEP-2 from truncation analysis]”, where the note is “Fig 3B, normalized to the inhibition percentage value of PEP-2 at 50 μM, three replicates”, the “normalized inhibition of β-Gal, truncation scan of PEP-2” value is recorded as “inhibited β-Gal”.

PASMFSYFKKQGYYYKLGSC [PEP-2]: the IC50 is ~13 µM.

For RVFKRYKRWLHVSRYYFGSC [PEP-1], the IC50 was ~1.6 µM.
